The values below come from ChEMBL document CHEMBL4725453, “Modulation of Androgen Receptor for Therapeutic Application in Cancer and Viral Infection” (ACS Med Chem Lett, 2020).

This experiment addresses T1, Androgen receptor (Homo sapiens, UniProt P10275).
T1 sequence (P10275 whole entry): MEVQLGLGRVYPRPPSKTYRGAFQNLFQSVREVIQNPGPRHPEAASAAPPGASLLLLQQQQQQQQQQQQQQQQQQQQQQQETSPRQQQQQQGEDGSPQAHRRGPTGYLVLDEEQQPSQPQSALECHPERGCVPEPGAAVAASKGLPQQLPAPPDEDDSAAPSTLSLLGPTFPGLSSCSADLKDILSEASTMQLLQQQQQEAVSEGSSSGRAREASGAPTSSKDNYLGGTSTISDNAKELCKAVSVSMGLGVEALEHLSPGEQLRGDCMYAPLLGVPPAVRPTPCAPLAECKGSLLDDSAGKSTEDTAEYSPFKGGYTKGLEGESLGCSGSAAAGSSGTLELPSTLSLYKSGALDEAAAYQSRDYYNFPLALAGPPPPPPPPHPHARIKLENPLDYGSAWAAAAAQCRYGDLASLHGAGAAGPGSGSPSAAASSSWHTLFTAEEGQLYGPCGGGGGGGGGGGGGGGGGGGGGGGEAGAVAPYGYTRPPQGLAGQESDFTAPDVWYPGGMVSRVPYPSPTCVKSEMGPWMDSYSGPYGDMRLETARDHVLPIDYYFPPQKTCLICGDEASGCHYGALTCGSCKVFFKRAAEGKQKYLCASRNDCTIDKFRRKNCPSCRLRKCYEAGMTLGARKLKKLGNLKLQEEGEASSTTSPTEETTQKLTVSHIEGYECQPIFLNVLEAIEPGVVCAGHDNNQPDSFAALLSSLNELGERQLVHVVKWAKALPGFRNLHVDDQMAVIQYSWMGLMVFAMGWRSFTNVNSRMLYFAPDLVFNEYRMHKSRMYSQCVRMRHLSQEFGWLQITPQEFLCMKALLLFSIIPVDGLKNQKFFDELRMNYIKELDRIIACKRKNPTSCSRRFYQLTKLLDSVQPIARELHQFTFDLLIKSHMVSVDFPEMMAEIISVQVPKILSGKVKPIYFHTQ
The experiment can be described thus: Modulation of AR in human LNCAP cells transfected with PSA reporter gene assessed as inhibition of R1881-induced PSA luciferase activity pretreated for 1 hr followed by R1881 addition and measured after 24 hrs by luciferase assay. The format is cell-based. (In a reporter assay the amount or activity of a reporter protein is the signal.)
`CSc1nc(C)c(COc2ccc(C(C)(C)c3cc(Cl)c(OCCCl)c(C#N)c3)cc2)o1`: the IC50 is under 500 nM. As for `CC(C)(c1ccc(OCc2ccnc(NS(C)(=O)=O)n2)cc1)c1cc(Cl)c(OCCCl)c(Cl)c1`, the 50% inhibitory concentration (IC50) was under 500 nM. To `CC(C)(c1ccc(OCc2nc(NS(C)(=O)=O)cs2)cc1)c1cc(Cl)c(OCCCl)c(C#N)c1` belongs under 500 nM; to `CC(C)(c1ccc(OCc2cnc(NS(C)(=O)=O)nc2)cc1)c1cc(Cl)c(OCCCl)c(C#N)c1`, under 500 nM. With `Cc1cnc(NS(C)(=O)=O)nc1COc1ccc(C(C)(C)c2cc(Cl)c(OCCCl)c(C#N)c2)cc1` the figure was under 500 nM; with `CC(C)(c1ccc(OCc2ncc(NS(C)(=O)=O)s2)cc1)c1cc(Cl)c(OCCCl)c(C#N)c1`, under 500 nM; with `Cc1nc(NS(C)(=O)=O)nc(COc2ccc(C(C)(C)c3cc(Cl)c(OCCCl)c(C#N)c3)cc2)c1C`, under 500 nM. To `CC(C)S(=O)(=O)Nc1nc(COc2ccc(C(C)(C)c3cc(Cl)c(OCCCl)c(C#N)c3)cc2)co1` belongs 500 nM; to `CC(C)(c1ccc(OCc2cnc(Cl)o2)cc1)c1cc(Cl)c(OCCCl)c(C#N)c1`, under 500 nM. For the compound `CC(C)(c1ccc(OCc2ccnc(NS(C)(=O)=O)n2)cc1)c1cc(F)c(OCCCl)c(Cl)c1`, the concentration for half-maximal inhibition (IC50) came to 500 nM.

In the case of `CC(C)(c1ccc(OCc2cnc(NS(C)(=O)=O)o2)cc1)c1cc(Cl)c(OCCCl)c(C#N)c1`, the 50% inhibitory concentration (IC50) was under 500 nM. With `CC(C)S(=O)(=O)c1nc(COc2ccc(C(C)(C)c3cc(Cl)c(OCCCl)c(C#N)c3)cc2)co1` the figure was under 500 nM.

As a reminder, the IC50 is the concentration that inhibits the measured activity by half.
